Values of other authors, collected in US6245797A, “Combination therapy for reducing the risks associated with cardio-and-cerebrovascular disease” (Merck & Co., Inc., priority 1998, dated 2001).

Conditions: Scandinavian Simvastatin Survival Study, over the course of the 5 year study

## CCC(C)(C)C(=O)O[C@H]1C[C@@H](C)C=C2C=C[C@H](C)[C@H](CC[C@@H]3C[C@@H](O)CC(=O)O3)[C@H]21 [simvastatin]
  treated patients who die of their disease: 5%
